Test results from patent US8173788B2, “Peptide having ability to activate cancer-related gene” (priority 2005, dated 2012).
Where no end group is shown, it is not given here.

What was measured:
[1] = tested on: human normal peripheral blood monocyte; assay: Influence of the artificially synthesized peptide on normal cell genes: coculture 7 hr, DNA chip system (Clontech), about 55000 human genes (Table 4); format: cell-based; conditions: monocytes, 7 hr
Protocol: (a) The peptide obtained in Example 3 was added to a human normal peripheral blood monocyte culture system (10 to 100 μg peptide/1×10^6 to 1×10^7 monocytes), and they were cocultured for 7 hr. Then, mRNA was extracted from the monocytes and was applied to analysis for up-regulation and down-regulation in respect to about 55000 human genes by using DNA chip system (Clontech).

[2] = tested on: rejection in skin transplantation; assay: Skin transplantation test, C57Black/6N skin to back of BALB/c mouse; format: in vivo; conditions: 50 μg peptide/0.1 ml/mouse subcutaneously
Protocol: Then, the cellular immunity-inhibition activity of the peptide was examined from the viewpoint of activity for preventing rejection in skin transplantation.
The peptide of the present invention was administered to mice who have received skin transplantation according to the schedule shown in Table 6.

[3] = tested on: peripheral blood monocytes; assay: Effect of the artificially synthesized peptide on total mRNA amount of peripheral blood monocytes; format: cell-based, human; design: reduction ratio: concentration or dose not given beside the values; conditions: peptide 7 hr; for post total RNA: 1 × 10^7 monocytes
Protocol: (b) The peptide obtained in Example 3 was added to a culture medium (10 to 100 μg peptide/1×10^7 monocytes) for human normal peripheral blood monocytes extracted from subjects shown in Table 5 below, and they were cocultured for 7 hr. Then, total mRNA was extracted from the monocytes, and the amount of the total mRNA was measured and compared to that of the total mRNA before the treatment with the peptide.

[4] = tested on: peripheral blood monocytes; assay: RT-PCR gene pattern change after 7 hr peptide treatment, peripheral blood monocytes; format: cell-based, human
Protocol: (§1) In order to examine influences at a gene level of the peptide on normal cells, RT-PCR was performed by adding the peptide artificially synthesized in Example 3 to the normal cells.
(§2) (1) Normal cells were treated with the artificially synthesized peptide for 7 hr as follows:
(§3) Then, total RNA was extracted from the above-treated normal cells, untreated normal cells, and squamous-cell carcinoma cells by using an RNA extraction kit (QIAGEN). The numbers of the treated cells and the untreated cells were the same.
(§4) Reverse transcription was performed by using 30 μg of each extracted total RNA to generate cDNA pools.
(§5) PCR was conducted using each of the cDNA pools as templates.
(§6) The condition for the PCR was as follows:
(§7) (2) Each of the PCR products was applied to electrophoresis and detected by using a fluorescence label.

Skin fibroblast cell = assay: RT-PCR gene pattern change after 7 hr peptide treatment, skin fibroblast cell; format: cell-based; conditions: 11-amino acid primer (full sequence), skin fibroblast sample
Protocol: as §1, §2, §3, §4, §5, §6, §7

Normal lymphocytes = assay: Exhaustive gene analysis of 55000 genes by DNA chip system (Codelink System); format: cell-based; conditions: normal lymphocytes treated vs untreated, Codelink slide 55000 genes
Protocol: Characteristics of the peptide of the present invention were clarified by conducting the analysis described below in order to examine effects of the peptide on gene expression of normal cells.
Normal lymphocytes were treated with the peptide of the present invention as in Examples 4 and 5, and the gene expression was compared to that of untreated lymphocytes by using a DNA chip system (Codelink System). In this examination, cRNA derived from bacteria was used as a positive control. Total RNA was extracted by using the QIAGEN RNA extraction kit used in Example 5. The total RNA (5 to 10 μg) was subjected to reverse transcription using an oligo-dT primer having a T7 RNA polymerase promoter region as a reverse primer to generate a pool of cDNAs complementary to the mRNAs. The condition for the reverse transcription was the same as that in Example 5. […] The amount of the cRNA was measured with a spectrophotometer to confirm at least 10 μg of the cRNA. […]
The hybridization chamber was removed and the plate was washed at 46° C. for 1 hr. The hybridization was detected with Cy5-streptavidin (1:500 dilution, at room temperature for 30 min). […]
(5) The result was analyzed by exclusive software for the Codelink analysis. […]

Kidney mesangium cell = assay: RT-PCR gene pattern change after 7 hr peptide treatment, kidney mesangium cell; format: cell-based; conditions: 11-amino acid primer (full sequence), kidney mesangium sample
Protocol: as §1, §2, §3, §4, §5, §6, §7

[5] = tested on: Pancreatic epithelial cells; assay: RT-PCR gene pattern change after 7 hr peptide treatment, pancreatic epithelial cells; format: cell-based; conditions: pancreatic epithelial sample
Protocol: as §1, §2, §3, §4, §5, §6, §7

[6] = subject eight, healthy subject (smoker)
[7] = subject five, healthy subject (side-stream smoke)
[8] = subject four, cancer patient received chemotherapy and radiotherapy
[9] = subject one, healthy subject (side-stream smoke)
[10] = subject seven, healthy subject (smoker)
[11] = subject two, healthy subject (side-stream smoke)

With “QPQFGRRMESK [artificially synthesized peptide]” the “Expression of TNF” value [1] was “not enhanced”, the “expression of cell growth factor such as a platelet-derived growth factor” value [1] was “enhanced” and the “expression of genes relating to anti-tumor immunity” value [1] was “highly suppressed”. The “expression of most of important factors as an operating factor for the humoral immunity mechanism” value [1] was “enhanced”, the “Expression of a gene relating to inhibition of metastasis of breast cancer, suppressed to” value ([1]; fraction of baseline) was 1/60 and the “expression of RAS suppressor protein gene, suppressed to” value ([1]; fraction of baseline) was 1/43. For the same sequence, the “expression of a gene relating to inhibition of leukemia, suppressed to” value ([1]; fraction of baseline) was 1/43, the “delay of skin rejection versus control” value ([2]; intermittent) was 5 days and the “rejection in skin transplantation / skin graft survival” value ([2]; intermittent) was “the rejection in the skin transplantation was suppressed and skin graft survival was prolonged”. The “skin rejection occurred, days after the transplantation” value ([2]; intermittent, 6 mice, control 7 days) was 12 days, the “survival of the transplanted skin of one mouse after the transplantation” value ([2]; one mouse) was 14 days and the “post total RNA” value ([3]; subject eight, healthy subject (smoker), pre 45.875 μg/ml) was 0.958 µg/mL. For the same sequence, the post/pre [3, 6] was 2%, the reduction ratio [3, 6] was 98% and the “post total RNA” value ([3]; subject five, healthy subject (side-stream smoke), pre 58.076 μg/ml) was 19.551 µg/mL. For the same sequence, the post/pre [3, 7] was 33.6%, the reduction ratio [3, 7] was 66.4% and the “post total RNA” value ([3]; subject four, cancer patient received chemotherapy and radiotherapy, pre 8.078 μg/ml) was 1.757 µg/mL. The post/pre [3, 8] was 21.7%, the reduction ratio [3, 8] was 78.3% and the “post total RNA” value ([3]; subject one, healthy subject (side-stream smoke), pre 69.622 μg/ml) was 7.735 µg/mL. For the same sequence, the post/pre [3, 9] was 11.1%, the reduction ratio [3, 9] was 88.9% and the “post total RNA” value ([3]; subject seven, healthy subject (smoker), pre 20.779 μg/ml) was 9.188 µg/mL. For the same sequence, the post/pre [3, 10] was 44.2%, the reduction ratio [3, 10] was 55.8% and the “post total RNA” value ([3]; subject six, healthy subject, pre 52.318 μg/ml) was 17.681 µg/mL. For the same sequence, the post/pre ([3]; subject six, healthy subject) was 33.7%, the reduction ratio ([3]; subject six, healthy subject) was 66.3% and the “post total RNA” value ([3]; subject three, healthy subject, pre 61.145 μg/ml) was 16.562 µg/mL. The post/pre ([3]; subject three, healthy subject) was 27%, the reduction ratio ([3]; subject three, healthy subject) was 73% and the “post total RNA” value ([3]; subject two, healthy subject (side-stream smoke), pre 66.804 μg/ml) was 14.742 µg/mL. The post/pre [3, 11] was 22%, the reduction ratio [3, 11] was 78% and the “gene band pattern by PCR before and after peptide treatment” value (“gene band pattern” below) ([4]; 11-amino acid primer (full sequence), peripheral blood sample (H.S.), 7 hr) was “a difference in the band patterns was observed”. The “gene pattern change by PCR after peptide treatment” value ([4]; 11-amino acid primer, sample of lanes 2 and 3 of FIG. 2B, healthy young man in twenties) was “gene mutation was hardly induced”, the “gene band pattern” value (Skin fibroblast cell) was “a difference in the band patterns was observed” and the “expression status of cancer-related genes” value (Normal lymphocytes) was “Cancer-inducing expression status of cancer-related genes was observed”. The “gene band pattern” value (Kidney mesangium cell) was “a difference in a position having a high concentration was observed”, the “gene band pattern” value ([5]; 7-amino acid primer (partial sequence)) was “a difference in the band patterns was observed” and the “gene band pattern” value ([5]; 11-amino acid primer (full sequence)) was “a difference in a position having a high concentration was observed”.
